# Reference: ChEMBL document CHEMBL3608259, “Carbonic Anhydrase Glycoinhibitors belonging to the Aminoxysulfonamide Series” (ACS Med Chem Lett, 2015)
# Molecular target: Carbonic anhydrase 9 (Homo sapiens, UniProt Q16790)
# Description: Inhibition of human recombinant carbonic anhydrase-9 catalytic domain by stopped-flow CO2 hydration assay
row,Ki [nM],SMILES
1,57,NS(=O)(=O)ONC(=O)OCc1ccccc1
2,85,NOS(=O)(=O)NC1C=C[C@H](O)[C@@H](CO)O1 (mixture of isomers)
3,90,CC(=O)OC[C@H]1OC(NS(=O)(=O)ON)C=C[C@@H]1OC(C)=O (mixture of isomers)
4,75,CC(=O)OC[C@H]1OC(NS(=O)(=O)ON)C=C[C@H]1OC(C)=O (mixture of isomers)
5,75,CC(=O)O[C@H]1C=CC(NS(=O)(=O)ON)OC1 (mixture of isomers)
6,86,CC(=O)O[C@@H]1C=CC(NS(=O)(=O)ON)OC1 (mixture of isomers)
7,86,CC(=O)O[C@@H]1C=CC(NS(=O)(=O)ON)O[C@H]1C (mixture of isomers)
8,61,NOS(=O)(=O)NC1C=C[C@@H](O)[C@@H](CO)O1 (mixture of isomers)
9,91,NOS(=O)(=O)NC1C=C[C@H](O)CO1 (mixture of isomers)
10,74,NOS(=O)(=O)NC1C=C[C@@H](O)CO1 (mixture of isomers)
11,61,C[C@@H]1OC(NS(=O)(=O)ON)C=C[C@H]1O (mixture of isomers)

row,SMILES,Ki [nM]
1,NOS(=O)(=O)NC(=O)OCc1ccccc1,77
